Laboratory results taken from paper PMC4718399 (Nature chemical biology, 2015).

What was measured:
β2R [1] = target: T1, β2R (Homo sapiens, UniProt P07550, N187E, form not given); experiment: Mass spectrometry quantification of lipids bound to purified β2R; conditions: β2R purified from Sf9 cells with 0.5% DDM
β2R [2] = target: T1, β2R; assay type: biochemical; conditions: 200μM solubilized lipid; for modulation of β2R activation by solubilized phospholipid: 200μM isoproterenol
β2R [3] = target: T1, β2R; experiment: Bimane fluorescence spectroscopy; assay type: biochemical; conditions: for basal (agonist-free) bimane emission λmax: bimane-labelled receptor reconstituted in rHDL of the given lipid, no ligand; for rate and magnitude of change in λmax upon agonist: rHDL of the given lipid, 200 μM isoproterenol, relative to basal fluorescence in detergent

Row | Compound | share of all β2R-bound lipids (β2R [1]) | basal λmax shift (β2R [2]; 1μM β2R, 500μM DDM, 600μM cholate) [nm] | modulation of β2R activation by solubilized phospholipid (β2R [2]) | basal (agonist-free) bimane emission λmax (β2R [3]) | rate and magnitude of change in λmax upon agonist (β2R [3])
1 | phosphatidylglycerol [PG] | over 16% | – | – | – | –
2 | CCCCCCCC/C=C\CCCCCCCC(=O)OC[C@H](COP(=O)(O)OCC(O)CO)OC(=O)CCCCCCC/C=C\CCCCCCCC (stereo partly shown) [DOPG] | over 7% | 4 | strongest positive modulator | about 455 nm | fastest rate of change and the largest shift in λmax
3 | CCCCCCCC/C=C\CCCCCCCC(=O)OC[C@H](COP(=O)([O-])OCC[N+](C)(C)C)OC(=O)CCCCCCC/C=C\CCCCCCCC [DOPC] | – | – | little or no effect | about 450 nm | intermediate
4 | CCCCCCCC/C=C\CCCCCCCC(=O)OC[C@H](COP(=O)(O)OC[C@H](N)C(=O)O)OC(=O)CCCCCCC/C=C\CCCCCCCC [DOPS] | – | – | positive effect albeit not as strong | – | –
5 | CCCCCCCC/C=C\CCCCCCCC(=O)OC[C@H](COP(=O)(O)OCCN)OC(=O)CCCCCCC/C=C\CCCCCCCC [DOPE] | – | – | little or no effect | about 450 nm | smallest change and slowest rate of change
